Common to all, as to assay type: cell-based
One series has as its system CHO 677 cells. The experiment in a line: Cell adhesion assay, CHO 677. Conditions: CHO 677, 6 μM, vs parental CHO-K1. How it is done:
(§1) (A) and (B) show CHO-K1 (wild-type) cells incubated with 1% (v/v) DMSO (A) or 6 μM adhesamine (B). (C) and (D) show CHO 677 incubated with 1% (v/v) DMSO (A) or 6 μM adhesamine (B). […] Cells were seeded onto adhesamine-added or fibronectin-coated plastic wells. The concentrations of adhesamine and fibronectin were 6 μM and 5 μg/mL, respectively. Adhered cells were counted at 5 hours after seeding. Each point represents average±SD.
(§2) For CHO wild-type and CHO mutant cell lines, 100 μL of trypsinized cell suspension in a culture medium was added to each well at a density of 2×10^5 cells/mL. After 5-hour incubation at 37° C., non-adhered cells were removed by washing each well with PBS twice, and the attached cells were counted with a Neubauer counting chamber (Digital Bio). To calculate adhesion rates, the cell numbers before washing were assigned a value of 100%. Each assay was conducted in triplicate, and the means and standard derivations were calculated for a minimum of three independent experiments.

For series [1], the system named is HepG2 cells. As to the kind of experiment: Cell adhesion assay by addition, HepG2 cells. The settings on record: 0.6-60 μM in medium, 3-hour incubation, reattachment after trypsin treatment. The procedure:
HepG2 cells were cultured in MEM supplemented with 10% fetal bovine serum (FBS) and 1% penicillin/streptomycin at 37° C. under 5% CO2. Jurkat cells were cultured in RPMI-1640 supplemented with 10% fetal bovine serum (FBS) and 1% penicillin/streptomycin at 37° C. under 5% CO2. For the screening of small molecule compounds, 100 μL of HepG2 suspension (2×10^5 cells/mL) was plated into 96-well plates supplied with each compound at a concentration of 20 μg/mL. After 3, 16, and 24 hours, the cells were subjected to microscopic observation to examine phenotypic changes. CHO K1 cells and CHO mutant cell lines were maintained in Ham's F-12 medium supplemented with 7.5% fetal bovine serum.
1 μL each of an aqueous solution of adhesamine (1), Type I collagen, poly-L-lysine hydrochloride, poly-L-ornithine hydrobromide, and fibronectin at a concentration of 50, 500, and 5000 μg/ml, was added to 96-well plate. […] After 3-hour incubation at 37° C., non-adherent cells were removed by washing each well with PBS three times, and the attached cells were counted with a Neubauer counting chamber (Digital Bio). […] […] Each assay was conducted in triplicate, and the means and standard derivations were calculated. […]

The next series concerns CHO 606 cells. The experiment in a line: Cell adhesion assay, CHO 606. The settings on record: CHO 606, 6 μM. The procedure: as §1, §2
Series [2] relates to HepG2 cells. The experiment in a line: Focal adhesion formation, anti-vinculin staining. Conditions: HepG2, immediately after seeding. How it is done:
Trypsin-treated HepG2 cells were plated for 3 hours onto coverslips to which adhesamine was added; fixed thereon; and stained with anti-vinculin antibody and Alexa Fluor 488 goat anti-mouse IgG.
The cells were also stained with an antibody against vinculin, a marker of focal adhesion. […] These observations indicate that the adhesamine-induced contacts of the cells to the plates initiate a normal schedule of cell adhesion^(2,3).

Series [3] concerns HepG2 cells. The experiment in a line: Cell growth assay (WST-8), HepG2. The procedure: In (A) and (B), the cell growth was determined at 24, 48, and 72 hours after the addition of adhesamine (1) (6 μM). The cell growth in the presence of 1% (v/v) DMSO was assigned a value of 100%. The data shown are means±SD for a minimum of three experiments. (C) to (F) show the rearrangement of actin filaments in HepG2 and Jurkat cells in the presence of adhesamine (6 μM). Brightfield images (C and D) and confocal images (E and F) are shown. HepG2 (C and E) or Jurkat (D and F) cells were plated for 5 hours or 3 hours, respectively, and actin cytoskeletal was visualized using rhodamine-labeled phalloidin.
1 μL DMSO solution of adhesamine (1) was added to 96-well plate at a concentration of 600 μM. […] After incubation for indicated time, the cell viability was measured using Cell Counting Kit-8 (Dojindo Molecular Technologies, Inc., Gaithersburg, Md.), which contains a tetrazolium salt (WST-8) that produces a water-soluble formazan dye by NADH dehydrogenases in living cells. […] The optical density (OD) of the solution was read by a microplate reader, using a test wavelength at 450 nm and a reference wavelength at 650 nm. […] Each assay was conducted in triplicate, and the means and standard derivations were calculated for a minimum of three independent experiments.
(Formazan colour is commonly taken as a measure of viable cells.)

Here are results for 1 molecule from patent US8685976B2, “Cell adhesion promoting agent and method of promoting cell adhesion” (Kyoto University, priority 2008, dated 2014).

In the case of `CSc1nc(Cl)c(C=O)c(N2CC[N+]3(CC2)CC[N+]2(CCN(c4nc(SC)nc(Cl)c4C=O)CC2)CC3)n1` [adhesamine], the “response of cell adhesion to adhesamine” value in the series on CHO 677 cells and in the series with CHO 606 cells was “less responsive” throughout. In the series with HepG2 cells [1], the “enhancement of the adhesion of HepG2 cells” value is given as “up to twofold”. Also, in the series on HepG2 cells [2], the vinculin-containing focal adhesions result was “Vinculin-containing focal adhesions were observed”. In the series with HepG2 cells [3] (HepG2, 6 μM), the cytotoxicity entry was “no obvious cytotoxicity”. Moreover, in the series on HepG2 cells [3] (HepG2, 6 μM, 24, 48, 72 hours, vs 1% DMSO), the “growth of the cells” value is recorded as “slightly enhanced”.
